# Where two headings read alike, the source gives them in different places.
# Key:
# [1] = tested on: E. coli ATCC 25922 (AECO001); test: MIC, CLSI broth microdilution; format: cell-based; conditions: Escherichia coli
# Protocol: (§1) Minimum inhibitory concentrations (MIC) were determined by reference Clinical and Laboratory Standards Institute (CLSI) broth microdilution methods per M7-A7 [2006]. Quality control ranges utilizing E. coli ATCC 25922, P. aeruginosa ATCC 27853 and S. aureus ATCC 29213, and interpretive criteria for comparator agents were as published in CLSI M100-S17 [2007]. Briefly, serial two-fold dilutions of the test compounds were prepared at 2× concentration in Mueller Hinton Broth. The compound dilutions were mixed in 96-well assay plates in a 1:1 ratio with bacterial inoculum. The inoculum was prepared by suspension of a colony from an agar plate that was prepared the previous day. Bacteria were suspended in sterile saline and added to each assay plate to obtain a final concentration of 5×10^5 CFU/mL. The plates were incubated at 35° C. for 20 hours in ambient air.
# [2] = tested on: P. aeruginosa ATCC 27853 (APAE001); test: MIC, CLSI broth microdilution; format: cell-based; conditions: Pseudomonas aeruginosa
# Protocol: as §1
# [3] = ATCC25922, read-out: MIC AECO001, Table 1, AECO001 is ATCC25922
# [4] = ATCC27853, read-out: MIC APAE001, Table 1, APAE001 is ATCC27853
# [5] = ATCC25922, Table 2, read-out: MIC E. coli
# [6] = Table 1, AECO001 is ATCC25922, read-out: MIC AECO001
# [7] = ATCC27853, Table 2, read-out: MIC P. aeruginosa
smiles,measurement,setting,value
"CN[C@@H]1[C@@H](O)[C@@H](O[C@@H]2[C@@H](O)[C@H](O[C@H]3OC(CNCC4(N)CC4)=CC[C@H]3N)[C@@H](N)C[C@H]2NC(=O)[C@@H](O)CN)OC[C@]1(C)O [Example 67, 6′-(Methyl-1-Amino-cyclopropyl)-1-(3-amino-2(S)-hydroxy-propionyl)-sisomicin]",MIC,[1]; [3],1 to 16 µg/mL
same,MIC,[2]; [4],1 to 16 µg/mL
"CN[C@@H]1[C@@H](O)[C@@H](O[C@@H]2[C@@H](O)[C@H](O[C@H]3OC(CN)=CC[C@H]3NCC(C)(C)CN(C)C)[C@@H](N)C[C@H]2NC(=O)[C@@H](O)CCN)OC[C@]1(C)O [Example 94, 2′-(N,N-Dimethyl-2,2-dimethyl-3-amino-propyl)-1-(4-amino-2(S)-hydroxy-butyryl)-sisomicin]",MIC,[1]; [3],1 to 16 µg/mL
same,MIC,[2]; [4],> 16 µg/mL
"CN[C@@H]1[C@@H](O)[C@@H](O[C@@H]2[C@@H](O)[C@H](O[C@H]3OC(CNCC(O)CCN)=CC[C@H]3N)[C@@H](N)C[C@H]2NC(=O)C(O)C2CNC2)OC[C@]1(C)O (stereo partly drawn) [Example 77, 6′-(2-Hydroxy-4-amino-butyl)-1-(2-(azetidin-3-yl)-2-hydroxy-acetyl)-sisomicin]",MIC,[1]; [3],1 to 16 µg/mL
same,MIC,[2]; [4],1 to 16 µg/mL
"CN[C@@H]1[C@@H](O)[C@@H](O[C@@H]2[C@@H](O)[C@H](O[C@H]3OC(CNCC4CC4)=CC[C@H]3N)[C@@H](N)C[C@H]2NC(=O)C(O)C2CNC2)OC[C@]1(C)O (stereo partly drawn) [Example 71, 6′-Methylcyclopropyl-1-(2-(azetidin-3-yl)-2-hydroxy-acetyl)-sisomicin]",MIC,[1]; [3],1 to 16 µg/mL
same,MIC,[2]; [4],> 16 µg/mL
"CN[C@@H]1[C@@H](O)[C@@H](O[C@@H]2[C@@H](O)[C@H](O[C@H]3OC(CNCC4CCNCC4)=CC[C@H]3N)[C@@H](N)C[C@H]2NC(=O)[C@H](O)CCN)OC[C@]1(C)O [Example 4, 6′-(Methyl-piperidin-4-yl)-1-(4-amino-2(R)-hydroxy-butyryl)-sisomicin]",MIC,[1]; [3],1 to 16 µg/mL
same,MIC,[2]; [4],1 to 16 µg/mL
"CN[C@@H]1[C@@H](O)[C@@H](O[C@@H]2[C@@H](O)[C@H](O[C@H]3OC(CNCC(C)(C)N)=CC[C@H]3N)[C@@H](N)C[C@H]2NC(=O)[C@@H](O)CN)OC[C@]1(C)O [Example 55, 6′-(2-Methyl-2-amino-propyl)-1-(3-amino-2(S)-hydroxy-propionyl)-sisomicin]",MIC,[1]; [3],1 to 16 µg/mL
same,MIC,[2]; [4],> 16 µg/mL
"CN[C@@H]1[C@@H](O)[C@@H](O[C@@H]2[C@@H](O)[C@H](O[C@H]3OC(CN)=CC[C@H]3NC3CNC3)[C@@H](N)C[C@H]2NC(=O)[C@@H](O)CCN)OC[C@]1(C)O [Example 96, 2′-(Azetidin-3-yl)-1-(4-amino-2(S)-hydroxy-butyryl)-sisomicin]",MIC,[1]; [5],< 1 µg/mL
same,MIC,[1]; [6],< 1 µg/mL
same,MIC,[2]; [7],1 to 16 µg/mL
"CN[C@@H]1[C@@H](O)[C@@H](O[C@@H]2[C@@H](O)[C@H](O[C@H]3OC(CNC(=N)N)=CC[C@H]3NC(=N)N)[C@@H](N)C[C@H]2N)OC[C@]1(C)O [Example 105, 6′,2′-bis-Guanidinium-sisomicin]",MIC,[1]; [3],> 16 µg/mL
same,MIC,[2]; [4],> 16 µg/mL
"CN[C@@H]1[C@@H](O)[C@@H](O[C@@H]2[C@@H](O)[C@H](O[C@H]3OC(CN)=CC[C@H]3NC[C@H](C)N)[C@@H](N)C[C@H]2NC(=O)[C@@H](O)CCN)OC[C@]1(C)O [Example 95, 2′-(2(S)-Amino-propyl)-1-(4-amino-2(S)-hydroxy-butyryl)-sisomicin]",MIC,[1]; [3],< 1 µg/mL
same,MIC,[2]; [4],> 16 µg/mL
"CN[C@@H]1[C@@H](O)[C@@H](O[C@@H]2[C@@H](O)[C@H](O[C@H]3OC(CNC[C@@H]4C[C@H](N)CN4)=CC[C@H]3N)[C@@H](N)C[C@H]2NC(=O)[C@@H](O)CN)OC[C@]1(C)O [Example 65, 6′-(Methyl-4(S)-amino-pyrrolidin-2(S)-yl)-1-(3-amino-2(S)-hydroxy-propionyl)-sisomicin]",MIC,[1]; [3],1 to 16 µg/mL
same,MIC,[2]; [4],1 to 16 µg/mL
CN[C@@H]1[C@@H](O)[C@@H](O[C@@H]2[C@@H](O)[C@H](O[C@H]3OC(CNCCO)=CC[C@H]3N)[C@@H](N)C[C@H]2NC(=O)C2(O)CC(N)C2)OC[C@]1(C)O (stereo partly drawn) [Example 62],MIC,[1]; [3],< 1 µg/mL
same,MIC,[2]; [4],1 to 16 µg/mL
"CN[C@@H]1[C@@H](O)[C@@H](O[C@@H]2[C@@H](O)[C@H](O[C@H]3OC(CNC[C@H]4C[C@H](N)C4)=CC[C@H]3N)[C@@H](N)C[C@H]2NC(=O)[C@@H](O)CN)OC[C@]1(C)O [Example 59, 6′-(Methyl-trans-3-amino-cyclobutyl)-1-(3-amino-2(S)-hydroxy-propionyl)-sisomicin]",MIC,[1]; [3],< 1 µg/mL
same,MIC,[2]; [4],1 to 16 µg/mL
"CN[C@@H]1[C@@H](O)[C@@H](O[C@@H]2[C@@H](O)[C@H](O[C@H]3OC(CN)=CC[C@H]3NC(=O)C(O)CN)[C@@H](N)C[C@H]2NC(=O)[C@@H](O)CCN)OC[C@]1(C)O (stereo partly drawn) [Example 89, 2′-(3-Amino-2-hydroxy-propionyl)-1-(4-amino-2(S)-hydroxy-butyryl)-sisomicin]",MIC,[1]; [3],< 1 µg/mL
same,MIC,[2]; [4],1 to 16 µg/mL
"CN[C@@H]1[C@@H](O)[C@@H](O[C@@H]2[C@@H](O)[C@H](O[C@H]3OC(CNC[C@H]4C[C@H](N)C4)=CC[C@H]3N)[C@@H](N)C[C@H]2NC(=O)C(O)C2CNC2)OC[C@]1(C)O (stereo partly drawn) [Example 72, 6′-(Methyl-trans-3-amino-cyclobutyl)-1-(2-(azetidin-3-yl)-2-hydroxy-acetyl)-sisomicin]",MIC,[1]; [3],1 to 16 µg/mL
same,MIC,[2]; [4],1 to 16 µg/mL
CN[C@@H]1[C@@H](O)[C@@H](O[C@@H]2[C@@H](O)[C@H](O[C@H]3OC(CNCC4(O)CC(N)C4)=CC[C@H]3N)[C@@H](N)C[C@H]2NC(=O)[C@@H](O)CCN)OC[C@]1(C)O (stereo partly drawn) [Example 46],MIC,[1]; [3],< 1 µg/mL
same,MIC,[2]; [4],1 to 16 µg/mL
"CN[C@@H]1[C@@H](O)[C@@H](O[C@@H]2[C@@H](O)[C@H](O[C@H]3OC(CNCC4(CN)CC4)=CC[C@H]3N)[C@@H](N)C[C@H]2NC(=O)[C@@H](O)CN)OC[C@]1(C)O [Example 66, 6′-(Methyl-1-aminomethyl-cyclopropyl)-1-(3-amino-2(S)-hydroxy-propionyl)-sisomicin]",MIC,[1]; [3],< 1 µg/mL
same,MIC,[2]; [4],1 to 16 µg/mL
"CN[C@@H]1[C@@H](O)[C@@H](O[C@@H]2[C@@H](O)[C@H](O[C@H]3OC(CNCC4CC(N)C4)=CC[C@H]3N)[C@@H](N)C[C@H]2NC(=O)[C@@H](O)CCN)OC[C@]1(C)O (stereo partly drawn) [Example 33, 6′-(Methyl-trans-3-amino-cyclobutyl)-1-(4-amino-2(S)-hydroxy-butyryl)-sisomicin]",MIC,[1]; [3],< 1 µg/mL
same,MIC,[2]; [4],1 to 16 µg/mL
"CN[C@@H]1[C@@H](O)[C@@H](O[C@@H]2[C@@H](O)[C@H](O[C@H]3OC(CNCC(O)CCN)=CC[C@H]3N)[C@@H](N)C[C@H]2NC(=O)[C@@H](O)CN)OC[C@]1(C)O (stereo partly drawn) [Example 68, 6′-(2-Hydroxy-4-amino-butyl)-1-(3-amino-2(S)-hydroxy-propionyl)-sisomicin]",MIC,[1]; [3],1 to 16 µg/mL
same,MIC,[2]; [4],1 to 16 µg/mL
CN[C@@H]1[C@@H](O)[C@@H](O[C@@H]2[C@@H](O)[C@H](O[C@H]3OC(CNCC4(CN)CC4)=CC[C@H]3N)[C@@H](N)C[C@H]2NC(=O)C2(O)CCNC2)OC[C@]1(C)O (stereo partly drawn) [Example 79],MIC,[1]; [3],1 to 16 µg/mL
same,MIC,[2]; [4],> 16 µg/mL
"CN[C@@H]1[C@@H](O)[C@@H](O[C@@H]2[C@@H](O)[C@H](O[C@H]3OC(CNCC4(CN)CC4)=CC[C@H]3N)[C@@H](N)C[C@H]2NC(=O)C(O)C2CNC2)OC[C@]1(C)O (stereo partly drawn) [Example 74, 6′-(Methyl-1-aminomethyl-cyclopropyl)-1-(2-(azetidin-3-yl)-2-hydroxy-acetyl)-sisomicin]",MIC,[1]; [3],1 to 16 µg/mL
same,MIC,[2]; [4],> 16 µg/mL
"CN[C@@H]1[C@@H](O)[C@@H](O[C@@H]2[C@@H](O)[C@H](O[C@H]3OC(CNCCN)=CC[C@H]3N)[C@@H](N)C[C@H]2NC(=O)[C@@H](O)CCN)OC[C@]1(C)O [Example 38, 6′-(2-Amino-ethyl)-1-(4-amino-2(S)-hydroxy-butyryl)-sisomicin]",MIC,[1]; [3],< 1 µg/mL
same,MIC,[2]; [4],1 to 16 µg/mL
"CN[C@@H]1[C@@H](O)[C@@H](O[C@@H]2[C@@H](O)[C@H](O[C@H]3OC(CNCC(O)CO)=CC[C@H]3N)[C@@H](N)C[C@H]2NC(=O)[C@H](O)CN)OC[C@]1(C)O (stereo partly drawn) [Example 10, 6′-(2-Hydroxy-propanol)-1-(3-amino-2(R)-hydroxy-propionyl)-sisomicin]",MIC,[1]; [3],1 to 16 µg/mL
same,MIC,[2]; [4],1 to 16 µg/mL
"CN[C@@H]1[C@@H](O)[C@@H](O[C@@H]2[C@@H](O)[C@H](O[C@H]3OC(CNCCCN)=CC[C@H]3N)[C@@H](N)C[C@H]2NC(=O)[C@H](O)CN)OC[C@]1(C)O [Example 11, 6′-(3-Amino-propyl)-1-(3-amino-2(R)-hydroxy-propionyl)-sisomicin]",MIC,[1]; [3],< 1 µg/mL
same,MIC,[2]; [4],1 to 16 µg/mL
"CN[C@@H]1[C@@H](O)[C@@H](O[C@@H]2[C@@H](O)[C@H](O[C@H]3OC(CN)=CC[C@H]3NCCCCN)[C@@H](N)C[C@H]2NC(=O)[C@@H](O)CCN)OC[C@]1(C)O [Example 102, 2′-(4-Amino-butyl)-1-(4-amino-2(S)-hydroxy-butyryl)-sisomicin]",MIC,[1]; [3],< 1 µg/mL
same,MIC,[2]; [4],1 to 16 µg/mL
"CN[C@@H]1[C@@H](O)[C@@H](O[C@@H]2[C@@H](O)[C@H](O[C@H]3OC(CNCC4CCNCC4)=CC[C@H]3N)[C@@H](N)C[C@H]2NC(=O)[C@@H](O)CN)OC[C@]1(C)O [Example 15, 6′-(Methyl-piperidin-4-yl)-1-(3-amino-2(S)-hydroxy-propionyl)-sisomicin]",MIC,[1]; [5],< 1 µg/mL
same,MIC,[1]; [6],< 1 µg/mL
same,MIC,[2]; [7],1 to 16 µg/mL
"CN[C@@H]1[C@@H](O)[C@@H](O[C@@H]2[C@@H](O)[C@H](O[C@H]3OC(CN)=CC[C@H]3NCCO)[C@@H](N)C[C@H]2NC(=O)[C@@H](O)CCN)OC[C@]1(C)O [Example 98, 2′-(2-Hydroxy-ethyl)-1-(4-amino-2(S)-hydroxy-butyryl)-sisomicin]",MIC,[1]; [3],1 to 16 µg/mL
same,MIC,[2]; [4],1 to 16 µg/mL

# Source: patent publication US20120214760A1, “TREATMENT OF URINARY TRACT INFECTIONS WITH ANTIBACTERIAL AMINOGLYCOSIDE COMPOUNDS” (Achaogen, Inc., priority 2009, published 2012)
